Measurements published in ChEMBL document CHEMBL1201862, “PubChem BioAssay data set” (2004).
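The compound was tested at five concentrations on cells cultured in 96-well plates, with a 48-hour exposure period. Abbreviation: GI50, concentration required for 50% inhibition of growth.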 Calls of active or inactive are those of the source. Cut-off read from the data, not from the text of the source: active = GI50 up to about 1.1 µM and inactive = higher.

Legend:
Experiment in all cases: growth of human tumour cells (NCI), 48 h
[1] = system: DMS-273
[2] = system: SF-295
[3] = system: HCC 2998
[4] = system: CAKI-1
[5] = system: SNB-78
[6] = system: ACHN
[7] = system: IGROV-1
[8] = system: DMS-114
[9] = system: NCI-H23
[10] = system: DLD-1
[11] = system: HCT-116
[12] = system: HT-29
[13] = system: NCI-H460
[14] = system: CCRF-CEM
[15] = system: SNB-75
[16] = system: SR
[17] = system: HOP-92
[18] = system: NCI-H226
[19] = system: RXF 393
[20] = system: COLO 205
[21] = system: XF498
[22] = system: RXF 631
[23] = system: A549
[24] = system: NCI-H522
[25] = system: OVCAR-5
[26] = system: SF-268
[27] = system: HCT-15
[28] = system: SN12C
[29] = system: OVCAR-4
[30] = system: U-251
[31] = system: SK-MEL-5
[32] = system: UO-31
[33] = system: UACC-257
[34] = system: KM12
[35] = system: K562
[36] = system: MOLT-4
[37] = system: EKVX
[38] = system: Malme-3M
[39] = system: UACC-62
[40] = system: LXFL 529
[41] = system: SK-OV-3
[42] = system: A498
[43] = system: SNB-19
[44] = system: SW-620
[45] = system: HL-60
[46] = system: M14
[47] = system: SK-MEL-28
[48] = system: KM-20L2
[49] = system: SF-539
[50] = system: HOP-62
[51] = system: OVCAR-8
[52] = system: M19-MEL
[53] = system: 786-0
[54] = system: SK-MEL-2
[55] = system: RPMI-8226
[56] = system: TK-10
[57] = system: LOX IMVI
[58] = system: HOP-18
[59] = system: OVCAR-3

Measured: GI50

Nc1cc2c(C3OC(CO)C(O)C3O)n[nH]c2c(=S)[nH]1 (centres undefined)
94 µM: [27]
inactive: [1] > 100 µM | [2] > 100 µM | [3] > 100 µM | [4] 54.3 µM | [5] > 100 µM | [6] > 100 µM | [7] > 100 µM | [8] > 100 µM | [9] > 100 µM | [10] > 100 µM | [11] > 100 µM | [12] > 100 µM | [13] > 100 µM | [14] > 100 µM | [15] > 100 µM | [16] > 100 µM | [17] > 100 µM | [18] > 100 µM | [19] 32.7 µM | [20] > 100 µM | [21] > 100 µM | [22] > 100 µM | [23] > 100 µM | [24] > 100 µM | [25] > 100 µM | [26] > 100 µM | [28] > 100 µM | [29] 92.5 µM | [30] > 100 µM | [31] > 100 µM | [32] > 100 µM | [33] > 100 µM | [34] > 100 µM | [35] > 100 µM | [36] > 100 µM | [37] > 100 µM | [38] > 100 µM | [39] > 100 µM | [40] > 100 µM | [41] > 100 µM | [42] > 100 µM | [43] > 100 µM | [44] > 100 µM | [45] 41.2 µM | [46] > 100 µM | [47] > 100 µM | [48] > 100 µM | [49] > 100 µM | [50] > 100 µM | [51] > 100 µM | [52] > 100 µM | [53] > 100 µM | [54] 98.2 µM | [55] > 100 µM

CCCCCCCCCCCCCCCCOC(=O)c1cc(O)cc(C(=O)OCCCCCCCCCCCCCCCC)c1
> 100 µM: [27]
inactive: [1] > 100 µM | [2] > 100 µM | [3] > 100 µM | [4] > 100 µM | [5] > 100 µM | [6] > 100 µM | [7] > 100 µM | [8] > 100 µM | [9] > 100 µM | [11] > 100 µM | [12] > 100 µM | [13] > 100 µM | [56] > 100 µM | [14] > 100 µM | [15] > 100 µM | [57] > 100 µM | [17] > 100 µM | [18] > 100 µM | [19] > 100 µM | [20] > 100 µM | [22] > 100 µM | [23] > 100 µM | [24] > 100 µM | [25] > 100 µM | [26] > 100 µM | [28] > 100 µM | [29] > 100 µM | [30] > 100 µM | [31] > 100 µM | [32] > 100 µM | [33] > 100 µM | [34] > 100 µM | [35] > 100 µM | [36] > 100 µM | [37] > 100 µM | [38] > 100 µM | [39] > 100 µM | [40] > 100 µM | [41] > 100 µM | [42] > 100 µM | [43] > 100 µM | [44] > 100 µM | [45] > 100 µM | [46] > 100 µM | [47] > 100 µM | [48] > 100 µM | [51] > 100 µM | [58] > 100 µM | [52] > 100 µM | [53] > 100 µM | [54] > 100 µM | [55] > 100 µM | [59] > 100 µM
